Here are results for two compounds from patent US20140140962A1, “VIRUSES MODIFIED WITH UNNATURAL MOIETIES AND METHODS OF USE THEREOF” (priority 2011, published 2014).

Data set [1] concerns HEK 293 cells. Put plainly: Plaque forming assay (infectivity). The class given is cell-based. The conditions noted are these: inferred from plaque assays, even at high concentration. The protocol:
Dulbecco's modified Eagle's medium (DMEM), RPMI 1640, penicillin/streptomycin and 0.5% trypsin-EDTA were purchased from GIBCO (Grand Island, N.Y.). RPMI 1640 minus folic acid was obtained from Sigma. Fetal calf serum (FCS) and bovine calf serum (BCS) was purchased from HyClone (Logan, Utah). 293 cells were maintained in DMEM supplemented with 10% BCS, 2 mM glutamine, 100 U/mL penicillin, 100 μg/mL streptomycin. 4T1 cells (ATCC) were maintained in RPMI 1640 medium containing 10% FCS, 2 mM L-glutamine, 100 U/mL penicillin, and 100 μg/mL streptomycin. For 4T1 cells grown without folate, RPMI 1640 minus folic acid was supplemented with 10% FCS, 0.3 mg/mL L-glutamine, 2 mg/mL sodium bicarbonate, 100 U/mL penicillin, 100 μg/mL streptomycin. All cells were maintained in 100×20 mm tissue culture dishes obtained from BD biosciences (Franklin Lakes, N.J.) at 37° C. and 5% CO2. HEK 293 cells in […] culture plates were infected with 400 μL of azide labeled virus particles at concentrations of 10^3 particles/mL. The plates were overlaid with complete media containing 2.8% bactoagar and 10% BCS. […] The plaques were counted within a day after the final overlay.
HEK 293 cells cultivated in 6 mL culture plates were infected with 400 μL of azide labeled virus particles at concentrations of 10^3 particles/ml. […] The plaques were counted within a day after the final overlay.

For data set [2], the system named is cancer stem cell related genes (Oct4, Sox2, Nanog, and c-Myc). The conditions noted are these: 3 unrelated invasive colon cancer cell lines; cited from earlier work.
For data set [3], the system named is drug resistant cancer cell lines. Conditions: cited from earlier work.

Take `[N-]=[N+]=NCC[C@H](N)C(=O)O` [Aha, Azidohomoalanine]: the “toxicity to the cells” value in data set [1] was “not toxic to the cells”.
Consider `CC(=O)O[C@@]12CO[C@@H]1C[C@H](O)[C@@]1(C)C(=O)[C@H](OC(=O)C3CC3)C3=C(C)[C@@H](OC(=O)[C@H](O)[C@H](C=C(C)C)NC(=O)OC(C)(C)C)C[C@@](O)([C@@H](OC(=O)c4ccccc4)[C@H]21)C3(C)C` [SB-T-1214], for which the “inhibition of cancer stem cell related genes” value in data set [2] was “substantial inhibition”. Moreover, the “cytotoxicity against drug resistant cancer cell lines” value in data set [3] was “significantly improved cytotoxicity”.
